Source: PMC6502639 (Nature protocols, 2018)
Like-named read-outs stand apart in the source and are kept apart here.

Experiments:
hiPSC-CMs [1] = tested on: hiPSC-CMs
patient cardiac function = details: patients; abbreviations in table footnote; ref Table S1 in Sharma et al. 10; cited from earlier work
hiPSC-CMs [2] = details: cited from earlier work
hiPSC-CMs [3] = details: cited from earlier work; for hiPSC-CM cytotoxicity (in words): hiPSC-CMs
hiPSC-CMs [4] = details: cited from earlier work; remark: listed apart in the source
hiPSC-CMs [5] = details: cited from earlier work; remark: listed apart in the source
[6] = 0 to 1, average of normalized CoB and LD50 corrected by Cmax, without EC or AE
[7] = concentration at which 50% loss in hiPSC-CM viability is observed, 72 h

| Compound | Normalized CSI-Lite (CSINLITE) (hiPSC-CMs [1]; human) | Clinically reported cardiotoxicity (patient cardiac function) | Normalized CSI (CSIN) (hiPSC-CMs [2]) | Normalized CSI-Lite (CSINLITE) (hiPSC-CMs [1]; [6]) | LD50 (hiPSC-CMs [3]; [7]) [µM] | LD50 (hiPSC-CMs [3]) [µM] | hiPSC-CM cytotoxicity (in words) (hiPSC-CMs [3]) | hiPSC-CM contractility alteration (in words) (hiPSC-CMs [4]) | Effect on hiPSC-CM action potential / electrophysiology (in words) (hiPSC-CMs [5]) |
| --- | --- | --- | --- | --- | --- | --- | --- | --- | --- |
| COc1cc2nccc(Oc3ccc(NC(=O)C4(C(=O)Nc5ccc(F)cc5)CC4)cc3)c2cc1OC [Cabozantinib] | 1.000 | None^b | 0.769 |  |  |  |  |  |  |
| COc1cc(Nc2c(C#N)cnc3cc(OCCCN4CCN(C)CC4)c(OC)cc23)c(Cl)cc1Cl [Bosutinib] |  |  |  | 0.423 | 12.39 |  |  |  |  |
| CS(=O)(=O)CCNCc1ccc(-c2ccc3ncnc(Nc4ccc(OCc5cccc(F)c5)c(Cl)c4)c3c2)o1 [Lapatinib] | 0.190 | LV, QT^b | 0.209 |  | 100.76 |  |  |  |  |
| CC(C)(C)c1nc(-c2cccc(NS(=O)(=O)c3c(F)cccc3F)c2F)c(-c2ccnc(N)n2)s1 [Dabrafenib] |  |  | 0.459 | 0.561 | 100.68 |  |  |  |  |
| CNC(=O)c1cc(Oc2ccc(NC(=O)Nc3ccc(Cl)c(C(F)(F)F)c3)cc2)ccn1 [Sorafenib] | 0.003 | QT, LV, HF, MI, Hy | 0.004 |  |  | 3.40 | highly cytotoxic to hiPSC-CMs |  |  |
| Cc1nc(Nc2ncc(C(=O)Nc3c(C)cccc3Cl)s2)cc(N2CCN(CCO)CC2)n1 [Dasatinib] | 0.599 | QT, PE, Hy | 0.524 |  | 42.00 |  |  |  |  |
| Cc1ccc(C(=O)Nc2ccc(CN3CCN(C)CC3)c(C(F)(F)F)c2)cc1C#Cc1cnc2cccnn12 [Ponatinib] |  |  |  | 0.225 | 4.30 |  |  |  |  |
| CNC(=O)c1cc(Oc2ccc(NC(=O)Nc3ccc(Cl)c(C(F)(F)F)c3)c(F)c2)ccn1 [Regorafenib] |  | MI, Hy^b | 0.010 | 0.010 | 7.10 |  |  |  |  |
| CCN(CC)CCNC(=O)c1c(C)[nH]c(/C=C2\C(=O)Nc3ccc(F)cc32)c1C [Sunitinib] | 0.292 | HF, LV, MI, QT, Hy^b | 0.218 |  |  | 12.70 |  |  |  |
| C#Cc1cccc(Nc2ncnc3cc(OCCOC)c(OCCOC)cc23)c1 [Erlotinib] | 0.570 | MI (rare) | 0.653 |  |  | 87.60 |  |  |  |
| CCCS(=O)(=O)Nc1ccc(F)c(C(=O)c2c[nH]c3ncc(-c4ccc(Cl)cc4)cc23)c1F [Vemurafenib] |  |  | 0.003 | 0.002 | 32.10 |  |  |  |  |
| CC(=O)Nc1cccc(-n2c(=O)n(C3CC3)c(=O)c3c(Nc4ccc(I)cc4F)n(C)c(=O)c(C)c32)c1 [Trametinib] | 1.000 |  |  |  | 66.80 |  |  |  |  |
| Cc1ccc(Nc2nccc(N(C)c3ccc4c(C)n(C)nc4c3)n2)cc1S(N)(=O)=O [Pazopanib] |  | QT, LV (rare)^b | 0.671 | 1.000 |  |  |  |  |  |
| COc1cc2ncnc(Nc3ccc(F)c(Cl)c3)c2cc1OCCCN1CCOCC1 [Gefitinib] |  | None |  |  |  |  |  |  |  |
| Cc1cn(-c2cc(NC(=O)c3ccc(C)c(Nc4nccc(-c5cccnc5)n4)c3)cc(C(F)(F)F)c2)cn1 [Nilotinib] | 0.148 | QT, LV, Vas^a |  |  |  | 29.00 |  |  |  |
| COc1cc2c(Nc3ccc(Br)cc3F)ncnc2cc1OCC1CCN(C)CC1 [Vandetanib] |  | QT, TdP, SCD, HF, Hy^a | 0.041 | 0.056 | 20.60 |  |  | elicited arrhythmias and alterations in hiPSC-CM contractility | caused changes in hiPSC-CM electrophysiology and action potential duration |
| COc1cccc2c1C(=O)c1c(O)c3c(c(O)c1C2=O)C[C@@](O)(C(=O)CO)C[C@@H]3O[C@H]1C[C@H](N)[C@H](O)[C@H](C)O1 [Doxorubicin] | 0.008 | HF, LV^a | 0.010 |  | 0.78 |  |  |  |  |
| C[C@@H](Oc1cc(-c2cnn(C3CCNCC3)c2)cnc1N)c1c(Cl)ccc(F)c1Cl [Crizotinib] |  | QT, Brady | 0.063 | 0.067 |  | 8.60 |  |  |  |
| CN(C)C/C=C/C(=O)Nc1cc2c(Nc3ccc(F)c(Cl)c3)ncnc2cc1O[C@H]1CCOC1 [Afatinib] | 0.515 | None | 0.444 |  |  | 12.30 |  |  |  |
| CNC(=O)c1ccccc1Sc1ccc2c(/C=C/c3ccccn3)n[nH]c2c1 [Axitinib] | 1.000 | HF (rare), Hy | 1.000 |  |  |  | does not substantially alter | does not substantially alter |  |
| C=CC(=O)N1CCC[C@@H](n2nc(-c3ccc(Oc4ccccc4)cc3)c3c(N)ncnc32)C1 [Ibrutinib] | 0.580 |  | 0.507 |  |  |  |  |  |  |
